Data as given in publication PMC10180488, “Novel Derivatives of Eugenol as a New Class of PPARγ Agonists in Treating Inflammation: Design, Synthesis, SAR Analysis and In Vitro Anti-Inflammatory Activity” (Molecules, 2023).

Assays:
egg albumin = egg albumin (Gallus gallus, UniProt P01012); experiment: Albumin denaturation assay; type: biochemical, hen; details: mean ± SD (n = 3), read-out: Percentage inhibition of denaturation of albumin
Experimental: Inflammation is accompanied by protein denaturation. Tissue protein denaturation is a well-established cause of Inflammatory illnesses. Inflammatory disorders including rheumatoid arthritis, diabetes, and cancer have been linked to the denaturation of proteins. The ability of a substance to stop proteins from becoming denaturized has a role in the prevention of inflammatory disorders. […] Denaturation of proteins is accomplished by keeping the reaction mixture in a water bath at 70 °C for […].
Minor modifications were made to Mizushima and Kobayashi’s and Sakat et al. methodologies. The reaction mixture containing 0.2 mL of egg albumin (from a fresh hen’s egg) is mixed with 2.8 mL of phosphate-buffered saline (PBS, pH 6.4) and 2 mL of synthesized compounds in varying concentrations. The mixture was then heated at 70 °C for 5 min after being incubated at 37 °C for approximately 15–20 min. After cooling, their absorbance was measured at 660 nm spectrometrically. Three duplicates of the experiment were carried out. […] Percentage inhibition = (OD control − OD sample/OD control) × 100

human PPARγ- LBD = biological target: T1, human PPARγ- LBD (Homo sapiens, UniProt P37231); experiment: Lanthascreen TR-FRET PPARγ competitive binding assay; details: for Raw Data / Raw Data - Background: TR-FRET
T1 construct: a mixture of a human PPARγ- LBD labelled with glutathione S-transferase (GST)
T1 sequence (P37231 238-503 limits assumed): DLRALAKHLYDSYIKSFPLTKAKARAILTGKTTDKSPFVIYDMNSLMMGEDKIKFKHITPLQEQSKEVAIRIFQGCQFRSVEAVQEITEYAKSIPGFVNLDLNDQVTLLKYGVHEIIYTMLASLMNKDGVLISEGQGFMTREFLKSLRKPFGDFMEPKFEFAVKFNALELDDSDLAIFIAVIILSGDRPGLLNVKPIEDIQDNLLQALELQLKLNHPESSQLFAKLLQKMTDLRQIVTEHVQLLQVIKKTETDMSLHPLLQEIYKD
Experimental: Using the Lanthasreen TR-FRET assay, the synthesized compounds were first preliminary tested for the PPARγ binding affinity. […] A chemical under test displaces the tracer from PPAR-LBD, which lowers the TR-FRET ratio and decreases the FRET signal Figure 8 [33].
A multimode low-volume proxy plate reader was used to read the plates after one hour of incubation. Then, a mixture of a human PPARγ- LBD labelled with glutathione S-transferase (GST), a fluorescent small pan-PPAR ligand (FluormoneTM Pan-PPAR Green), and terbium-labeled anti-GST antibody was added.

[1] = tested on: human red blood cells (HRBC); experiment: HRBC membrane stabilization method; details: for HRBC membrane stabilization (percentage protection against HRBC lysis): mean ± SD (n = 3)

egg albumin, sequence (P01012 2-386): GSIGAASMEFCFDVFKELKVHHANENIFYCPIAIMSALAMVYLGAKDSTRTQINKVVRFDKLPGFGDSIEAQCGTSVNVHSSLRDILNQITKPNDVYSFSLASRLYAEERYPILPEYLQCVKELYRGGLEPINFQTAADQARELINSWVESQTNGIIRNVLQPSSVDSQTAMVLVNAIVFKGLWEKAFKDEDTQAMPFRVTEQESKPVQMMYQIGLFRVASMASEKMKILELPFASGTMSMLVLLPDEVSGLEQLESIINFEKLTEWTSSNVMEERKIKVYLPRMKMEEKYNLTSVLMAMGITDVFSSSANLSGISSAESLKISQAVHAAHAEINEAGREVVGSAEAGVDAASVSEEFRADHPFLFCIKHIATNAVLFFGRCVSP

C=CCc1ccc(OCC(=O)Nc2ccc([N+](=O)[O-])cc2)c(OC)c1 [Compound 1b, 2-(4-Allyl-2-methoxyphenoxy)-N-(4-nitrophenyl)acetamide]
inhibition at 6.25 µM (egg albumin; 6.25 µM): 2.06 ± 0.17% | inhibition at 12.5 µM (egg albumin; 12.5 µM): 4.44 ± 0.36% | inhibition at 25 µM (egg albumin; 25 µM): 8.42 ± 0.24% | inhibition at 50 µM (egg albumin; 50 µM): 13.4 ± 0.24% | inhibition at 100 µM (egg albumin; 100 µM): 17.6 ± 0.18% | inhibition at 200 µM (egg albumin; 200 µM): 21.2 ± 0.3% | inhibition at 400 µM (egg albumin; 400 µM): 32.2 ± 0.4% | IC50 (human PPARγ- LBD; Lanthascreen TR-FRET competitive binding): 42.4 µM | Raw Data (human PPARγ- LBD; 0.0000512 µM): 2.014 RLU | Raw Data - Background (human PPARγ- LBD; 0.0000512 µM): 1.767 RLU | Raw Data (human PPARγ- LBD; 0.000256 µM): 1.849 RLU | Raw Data - Background (human PPARγ- LBD; 0.000256 µM): 1.755 RLU | Raw Data (human PPARγ- LBD; 0.00128 µM): 1.865 RLU | Raw Data - Background (human PPARγ- LBD; 0.00128 µM): 1.732 RLU | Raw Data (human PPARγ- LBD; 0.0064 µM): 1.857 RLU | Raw Data - Background (human PPARγ- LBD; 0.0064 µM): 1.671 RLU | Raw Data (human PPARγ- LBD; 0.032 µM): 1.859 RLU | Raw Data - Background (human PPARγ- LBD; 0.032 µM): 1.568 RLU | Raw Data (human PPARγ- LBD; 0.16 µM): 1.896 RLU | Raw Data - Background (human PPARγ- LBD; 0.16 µM): 1.724 RLU | Raw Data (human PPARγ- LBD; 0.8 µM): 2.012 RLU | Raw Data - Background (human PPARγ- LBD; 0.8 µM): 1.756 RLU | Raw Data (human PPARγ- LBD; 4 µM): 1.779 RLU | Raw Data - Background (human PPARγ- LBD; 4 µM): 1.596 RLU | Raw Data (human PPARγ- LBD; 20 µM): 1.199 RLU | Raw Data - Background (human PPARγ- LBD; 20 µM): 1.025 RLU | Raw Data (human PPARγ- LBD; 100 µM): 0.421 RLU | Raw Data - Background (human PPARγ- LBD; 100 µM): 0.2685 RLU | HRBC membrane stabilization (percentage protection against HRBC lysis) ([1]; 6.25 µM): 3.19 ± 0.28% | HRBC membrane stabilization (percentage protection against HRBC lysis) ([1]; 12.5 µM): 9.10 ± 0.28% | HRBC membrane stabilization (percentage protection against HRBC lysis) ([1]; 25 µM): 15.55 ± 0.28% | HRBC membrane stabilization (percentage protection against HRBC lysis) ([1]; 50 µM): 27.49 ± 0.36% | HRBC membrane stabilization (percentage protection against HRBC lysis) ([1]; 100 µM): 36.16 ± 0.48% | HRBC membrane stabilization (percentage protection against HRBC lysis) ([1]; 200 µM): 45.07 ± 0.28% | HRBC membrane stabilization (percentage protection against HRBC lysis) ([1]; 400 µM): 58.36 ± 0.28% | IC50 ([1]; Homo sapiens, Erythrocyte, read-out: IC50 Values, HRBC membrane stabilization method): 83.2 µM
